# Patent US11135228B2, “Cysteinyl-proresolving mediators that promote resolution of infection and organ protection” (THE BRIGHAM AND WOMEN'S HOSPITAL, priority 2014, dated 2021)
# “Also recorded” adds a separate entry of the source.
# Legend:
# [1] = tested on: Mice (hind-limb ischemia/reperfusion); assay: Hind-limb ischemia reperfusion, second organ reflow injury; type: in vivo, mouse; conditions: for protection from leukocyte-mediated tissue damage: SCI (50 ng) plus SCII (50 ng) i.v. 10 min prior to reperfusion, lung H&E; for Ki67 and RSPO3 in lung sections (immunofluorescence), tissue repair / plasma eicosanoid levels, including LTB4, LTC4 and TxB2: SCI plus SCII 50 ng each i.v.
# Method: Ischemia Reperfusion: Mice were anesthetized by intraperitoneal (i.p.) injection of […]. To initiate hind-limb ischemia, tourniquets consisting of a rubber band were placed on each hind limb. Ten min prior to the initiation of reperfusion, Vehicle (saline containing 0.1% EtOH), SCI (50 ng) plus SCII (50 ng) or Resolvin D1 (500 ng) were administered by intravenous injection. At the end of reperfusion (3 h), mice were euthanized, blood collected via cardiac puncture and plasma isolated for lipid mediator metabololipidomics. Lungs were harvested, left lungs were frozen in liquid nitrogen and stored at −80° C. Right lungs were stored in 10% (v/v) buffered formalin and processed for histology and hematoxylin and eosin (H&E) staining by the Children's Hospital Boston Core Histology Facility, imaged using a Keyence BZ-9000 microscope and BZ II imaging software (Keyence) Expression of Ki67 and Roof plate-specific Spondin-3 (RSPO3) were assessed by immunofluorescence staining. Briefly, sections were deparafinized in xylene and rehydrated, then blocked in 10% horse serum and stained with either rat anti-mouse RSPON3 antibody (R&D Systems) for 1 h at room temperature and then with sheep anti-rat Alexa-594 conjugated antibody (BioLegend), or with rabbit anti-mouse antibody (Abeam) and then with donkey anti-rabbit Alexa-488 antibody (BioLegend). Slides were mounted in Vector Shield mounting solution with DAPI (Vector Labs) and immunofluorescence assessed using a Zeiss LSM 510 Meta confocal microscope. Images were processed using ImageJ software (National Institutes of Health) and Adobe Photoshop CS6 (Adobe Systems incorporated) software. Frozen lungs were gently dispersed, centrifuged, and tissue myeloperoxidase (MPO) levels were determined using mouse MPO ELISA (R&D Systems).
# Human macrophages = assay: Human macrophage efferocytosis of apoptotic PMN; type: cell-based; conditions: 10 pM-100 nM, 15 min, then apoptotic PMN 45 min; planarian isolates likewise
# Method: Leukocyte phagocytosis: Macrophages were prepared from peripheral blood mononuclear cells (PBMC) purchased from Children's Hospital Blood Bank, Boston, and phagocytosis was assessed as in (11). Briefly, macrophages (5×10^4 cells,/well) were incubated with SCI (10 pM-100 nM), SCII (10 pM-100 nM), MaR1 (10 pM-100 nM), or vehicle (0.1% EtOH in DPBS) for 15 min at 37° C., then fluorescent labeled apoptotic cells were added and cells incubated 45 min at 37° C. Extracellular fluorescence was quenched using Trypan blue (1:15 dilution) and phagocytosis assessed using an M3 SpectraMax plate reader. In select experiments, macrophages (5×10^4 cells/well) or neutrophils (1×10^5 cells/well) were obtained from human healthy volunteers' peripheral blood as in (11) in accordance with Partners Human Research Committee Protocol (#1999P001297), and incubated with H2DCFDA (5 μM, 30 min, 37° C.), then with SCI (10 pM-100 nM), SCI (10 pM-100 nM) or vehicle (0.1% EtOH in DPBS, 15 min, 37° C.) and E. coli (1:50 leukocytes to E. coli, 45 min, 37° C.) Intracellular reactive oxygen species were determined by measuring fluorescence using an M3 SpectraMax plate reader. To assess bacterial phagocytosis, macrophages (5×10^4 cells/well) or neutrophils (1×10^5 cells/well) were incubated with SCI (10 pM-100 nM), SCII (10 pM-100 nM) or vehicle (0.1% EtOH in DPBS, 15 min, 37° C.), then incubated with BacLight Green (Molecular Probes) labeled E. coli (1:50 leukocytes to E. coli, 45 min, 37° C.), Extracellular fluorescence was quenched using Trypan blue (1:15 dilution), and phagocytosis assessed using an M3 SpectraMax plate reader.
# In determined experiments, human macrophages were incubated with SC isolates from regenerating planaria for 15 min at 37° C., then fluorescent labeled apoptotic cells were added and efferocytosis was assessed as detailed above.
# Macrophage bacterial phagocytosis, efferocytosis, and phagolysosontal acidification: Human macrophages were plated in 96-well plates (5×10^4 cells per well) for 24 h, and phagocytosis or efferocytosis was assessed as in (14). In brief, apoptotic PMNs were obtained by culturing cells overnight in PBS^−/− (5×10^6 cells/ml). Apoptotic human PMNs were labeled with bisbenzimide H33342 trihydrochloride (Sigma-Aldrich). Human macrophages were incubated with 0.1-10 nM concentration of test products, and then labeled apoptotic PMNs were cocultured with macrophages for 40 min [37° C. […]]. Fluorescence was read on a SpectraMax M3 plate reader (Molecular Devices, Sunnyvale, Calif., USA), and results were analyzed using SoftMax Pro (Molecular Devices).
Compound,protection from leukocyte-mediated tissue damage [1],"Ki67 and RSPO3 in lung sections (immunofluorescence), tissue repair [1]","plasma eicosanoid levels, including LTB4, LTC4 and TxB2 [1]",macrophage efferocytosis of apoptotic cells (Human macrophages)
"13-glutathionyl, 14-hydroxy-docosahexaenoic acid [SCI]",Protects from neutrophil,Promotes tissue repair,Reduces systemic,dose-dependently increased; also recorded: Stimulates human
"CCC=CCC=CCC(O)C(C=CC=CC=CCC=CCCC(=O)O)SCC(N)C(=O)NCC(=O)O (centres unmarked) [SCII, 13-cysteinylglycinyl, 14-hydroxy-docosahexaenoic acid]",Protects from neutrophil,Promotes tissue repair,Reduces systemic,dose-dependently increased; also recorded: Stimulates human
